Results published in patent publication US20140221397A1, “FIBROSIS INHIBITOR” (Nippon Shinyaku Co., Ltd., priority 2008, published 2014).

Experiments:
[1] = system: interstitial pneumonia model mice induced by bleomycin; details: Non-Patent Document 1; cited from earlier work
[2] = system: Human Lung fibroblasts; assay: Proliferation of human lung fibroblasts stimulated by EGF (Test Example 1); format: cell-based; details: EGF stimulation, 10 μL of a 100 μM solution per well, 48 hours, FIG. 1
Protocol: Human Lung fibroblasts (manufactured by Lonza Walkersville; hereinafter, the same product will be used) were cultured in growth medium, which consisted of basal medium for human lung fibroblasts (manufactured by Lonza Walkersville; hereinafter, the same product will be used and referred to as “basal medium”) with FGM-2 additional factor set (manufactured by Lonza Walkersville; hereinafter, the same product will be used) under the condition of 37° C. and 5% CO2. The human lung fibroblasts were seeded in 96-well plate at 1×10^3 cell/well and incubated overnight in growth medium.
The fibroblasts were washed once with 100 μL of phosphate-buffered saline (manufactured by Nissui Seiyaku; hereinafter, the same product will be used) and 100 μL of basal medium was added thereto followed by incubation for 24 hours. They were further washed with 100 μL of phosphate-buffered saline once and then basal medium was added in an amount of 80 μL/well. Ten μL of a 100 μM solution of the compound A or the compound B was added to each well and incubated for 2 hours. […]
After incubating for 48 hours, absorbance at 490 nm was measured using Cell Titer 96, AQueous Assay (manufactured by Promega) for the analysis of cell proliferation activity. For the measurement of the absorbance, a microplate reader (Benchmark, manufactured by Bio-Rad; hereinafter, the same one will be used) was used.

[3] = system: Human Lung fibroblasts; assay: Proliferation of human lung fibroblasts stimulated by TGF-α (Test Example 2); format: cell-based; details: TGF-α stimulation, 10 μL of a 1 μM solution per well, 48 hours, FIG. 2
Protocol: Human lung fibroblasts were incubated in growth medium under the condition of 37° C. and 5% CO2. The human lung fibroblasts were seeded in 96-well plate at 3×10^3 cell/well and incubated overnight in growth medium.
The fibroblasts were washed once with 100 μL of phosphate-buffered saline. Then basal medium was added thereto and incubation was conducted for 24 hours. They were further washed with 100 μL of phosphate-buffered saline once and then basal medium was added in an amount of 80 μL/well. Ten μL of a 1 μM solution of the compound A was added to each well and incubated for 2 hours. The solution used therefor was prepared in such a manner that the compound A was previously dissolved in DMSO and the resulting 1 mM solution was diluted 100-fold with basal medium. For the non-stimulated control group and the control group, DMSO which was diluted 100-fold with the basal medium was used.
Then a 100 ng/mL solution of transforming growth factor-α (TGF-α) (manufactured by Chemicon) was added in an amount of 10 μL to each well and incubated for 48 hours. For a non-stimulated control group, the basal medium was used.
After incubating for 48 hours, absorbance at 490 nm was measured, in the same way as in Test Example 1, using a reagent for the analysis of cell proliferation activity. For the measurement of the absorbance, a microplate reader was used.

[4] = system: Human Lung fibroblasts; assay: Collagen production (PIP) in human lung fibroblasts stimulated by TGF β1 (Test Example 3); format: cell-based; details: TGF β1 stimulation, 10 μL of 0.1, 1, 10 or 100 μM solution per well, 48 hours, FIG. 3
Protocol: Human lung fibroblasts were seeded in 96-well plate at 5×10^3 cells/well and incubated in the growth medium in the same way as in Test Example 1 overnight. The fibroblasts were washed once with 100 μL of basal medium and 100 μL of basal medium was added thereto followed by incubating for 24 hours. They were further washed once with 100 μL of basal medium and then 80 μL/well of basal medium was added. A 0.1, 1, 10 or 100 μM solution of the compound A was added in an amount of 10 μL to each well. […] After incubating for 48 hours, the medium was recovered for measuring the concentration of the type I pro-collagen C terminal peptide (PIP) in the medium, and after an addition of 100 μL of the basal medium, the cell proliferation activity was measured using 3-(4,5-dimethyl-2-thiazolyl)-2,5-diphenyl-2H-tetrazolium bromide (MTT) (manufactured by Nacalai Tesque). Measurement of the cell proliferation activity was conducted in such a manner that 10 μL of a 5 mg/mL MTT stock solution was added to each well, and after incubation for 4 hours, 100 μL of a 0.04M isopropanol solution of hydrochloric acid was added to each well, followed by the absorbance measurement at 595 nm (reference wavelength: 655 nm) using a microplate reader. […]

[5] = system: type I collagen al chain (COL 1α1) mRNA; assay: COL 1α1 mRNA expression in human lung fibroblasts stimulated by TGF β1, real-time quantitative PCR (Test Example 4); format: cell-based; details: TGF β1 stimulation, 24 hours, corrected for GAPDH, FIG. 4
Protocol: (§1) Human lung fibroblasts were seeded in 24-well plate at 1×10^5 cells/well and incubated in growth medium in the same way as in Test Example 1 overnight. The fibroblasts were washed once with 500 μL of basal medium, and added with 500 μL of basal medium followed by incubation for 24 hours. They were further washed once with 500 μL of basal medium and then 400 μL/well of basal medium was added. A 1, 10 or […] of the compound A prepared by the same manner as in Test Example 3 was added in an amount of 50 μL to each well. For the non-stimulated control group and the control group, DMSO which was diluted 100-fold with basal medium was added in an amount of 50 μL. […] Using the cDNA prepared as above as a template, expressed amount of mRNA for type I collagen al chain (COL 1α1), type I collagen α2 chain (COL 1α2), α smooth muscle actin (ACTA), TGF β1 and glyceraldehydes 3-phosphate dehydrogenase (GAPDH) were measured by means of a real-time quantitative PCR method. The real-time quantitative PCR was conducted using Platinum SYBR Green qPCR Super-Mix-UDG with ROX (manufactured by Invitrogen) and a primer being specific to each gene in accordance with the manual attached to the Platinum SYBR Green qPCR Super-Mix-UDG with ROX using ABI PRISM 7000 (Applied Biosystems). […]

[6] = system: type I collagen α2 chain (COL 1α2) mRNA; assay: COL 1α2 mRNA expression in human lung fibroblasts stimulated by TGF β1, real-time quantitative PCR (Test Example 4); format: cell-based; details: TGF β1 stimulation, 24 hours, corrected for GAPDH, FIG. 5
Protocol: as §1

[7] = system: α smooth muscle actin (ACTA) mRNA; assay: ACTA mRNA expression in human lung fibroblasts stimulated by TGF β1, real-time quantitative PCR (Test Example 4); format: cell-based; details: TGF β1 stimulation, 24 hours, corrected for GAPDH, FIG. 6
Protocol: as §1

[8] = system: TGF β1 mRNA; assay: TGF β1 mRNA expression in human lung fibroblasts stimulated by TGF β1, real-time quantitative PCR (Test Example 4); format: cell-based; details: TGF β1 stimulation, 24 hours, corrected for GAPDH, FIG. 7
Protocol: as §1

[9] = system: Rat renal interstitial cells (NRF 49F cells); assay: Proliferation of rat renal interstitial cells stimulated by PDGF BB, MTT (Test Example 5); format: cell-based; details: PDGF BB stimulation, 10 μL of a 100 μM solution per well, 48 hours, FIG. 8
Protocol: Rat renal interstitial cells (NRF 49F cells) were seeded in 96-well plate at 1×10^4 cells/well and incubated in an Minimum Essential Medium (MEM medium; manufactured by Nippon Seiyaku; hereinafter, the same product will be used) containing 10% of bovine fetal serum (manufactured by JRH Bioscience; hereinafter, the same product will be used) under the condition of 37° C. and 5% CO2 overnight. The cells were washed once with an MEM medium containing no bovine fetal serum (hereinafter, referred to as “serum-free MEM medium”), and 100 μL of the serum-free MEM medium was added thereto followed by incubation for 24 hours. After washing with serum-free MEM medium once, serum-free MEM medium was added in an amount of 80 μL/well. A 100 μM solution of the compound A prepared by the same method as in Test Example 1 was added in an amount of 10 μL to each well. For the non-stimulated control group and the control group, DMSO which was diluted 100-fold with serum-free MEM medium was added in an amount of 10 μL. […] After incubating for 48 hours, cell proliferation activity (absorbance) was measured by an MTT method in the same way as in Test Example 3. The evaluation of this test was carried out using the value (cell proliferation level) expressed as a relative value where a mean value of absorption of the non-stimulating control group was defined as 1.

[10] = system: Human skin fibroblasts; assay: Collagen production (PIP) in human skin fibroblasts stimulated by TGF β1 (Test Example 6); format: cell-based; details: TGF β1 stimulation, 10 μL of 0.1, 1, 10 or 100 μM solution per well, 48 hours, FIG. 9
Protocol: Human skin fibroblasts (manufactured by Kurabo; hereinafter, the same product will be used) were seeded in 96-well plate at 5×10^3 cells/well and incubated in a Dulbecco's modified Eagle's medium (DMEM medium; manufactured by Nippon Seiyaku; hereinafter, the same product will be used) containing 10% of bovine fetal serum under the condition of 37° C. and 5% CO2 overnight. The human skin fibroblasts were washed once with an DMEM medium containing no bovine fetal serum (hereinafter, referred to as “serum-free DMEM medium”), and 100 μL of serum-free DMEM medium was added thereto followed by incubation for 24 hours. After washing with serum-free DMEM medium once more, serum-free DMEM medium was added in an amount of 80 μL/well. Ten μL of the 0.1, 1, 10 or 100 μM solution of the compound A prepared by the same method as in Test Example 3 was added to each well. […] After incubating for 48 hours, cell proliferation activity (absorbance) was measured by the MTT method, and PIP concentration in the medium was measured in the same way as in Test Example 3. The evaluation of this test was carried out using the value (index for production of collagen) calculated as a relative value where a mean value in the non-stimulated control group was defined as 1 after correcting the measured value of PIP concentration using the cell proliferation activity value (absorbance).

Row | Compound | effect for interstitial pneumonia [1] | cell proliferation activity (absorbance at 490 nm) as compared with the control group [2] | cell proliferation activity (absorbance at 490 nm) as compared with the control group [3] | collagen production (index for collagen production, PIP corrected for cell proliferation activity) as compared with the control group [4] | COL 1α1 mRNA expression level as compared with the control group [5] | COL 1α2 mRNA expression level as compared with the control group [6] | ACTA mRNA expression level as compared with the control group [7] | TGF β1 mRNA expression level as compared with the control group [8] | cell proliferation level as compared with the control group [9] | production of collagen (index for production of collagen, PIP corrected for cell proliferation activity) as compared with the control group [10]
1 | O=C(O)COc1cccc2c1CCC=C2CCO/N=C(\c1ccccc1)c1cccnc1 [ONO-1301] | inhibitive effect |  |  |  |  |  |  |  |  | 
2 | CC(C)N(CCCCOCC(=O)O)c1cnc(-c2ccccc2)c(-c2ccccc2)n1 [compound A, 2-{4-[N-(5,6-diphenyl-pyrazin-2-yl)-N-isopropylamino]butyloxy}acetic acid] |  | significantly decreased | significantly decreased | significantly decreased | decreased | decreased | decreased | decreased | significantly decreased | significantly decreased
3 | CC(C)N(CCCCOCC(=O)NS(C)(=O)=O)c1cnc(-c2ccccc2)c(-c2ccccc2)n1 [compound B, 2-{4-[N-(5,6-diphenylpyrazin-2-yl)-N-isopropylamino]butyl-oxy}-N-(methylsulfonyl)acetamide] |  | significantly decreased | inhibitive effects |  |  |  |  |  |  | 
